Our source for the IC50 and EC50 values is ChEMBL document CHEMBL3414512, “Discovery of orally active anticancer candidate CFI-400945 derived from biologically promising spirooxindoles: success and challenges” (Eur J Med Chem, 2015).

Each structure is given as a SMILES string.

Assay [1] deals with Serine/threonine-protein kinase PLK2 (Homo sapiens, UniProt Q9NYY3). The assay is described as follows: Inhibition of PLK-2 (unknown origin).
The target in assay [2] is Fibroblast growth factor receptor 1 (Homo sapiens, UniProt P11362). The assay is described as follows: Inhibition of FGFR1 (unknown origin).
Sequence of Fibroblast growth factor receptor 1 (P11362 whole entry): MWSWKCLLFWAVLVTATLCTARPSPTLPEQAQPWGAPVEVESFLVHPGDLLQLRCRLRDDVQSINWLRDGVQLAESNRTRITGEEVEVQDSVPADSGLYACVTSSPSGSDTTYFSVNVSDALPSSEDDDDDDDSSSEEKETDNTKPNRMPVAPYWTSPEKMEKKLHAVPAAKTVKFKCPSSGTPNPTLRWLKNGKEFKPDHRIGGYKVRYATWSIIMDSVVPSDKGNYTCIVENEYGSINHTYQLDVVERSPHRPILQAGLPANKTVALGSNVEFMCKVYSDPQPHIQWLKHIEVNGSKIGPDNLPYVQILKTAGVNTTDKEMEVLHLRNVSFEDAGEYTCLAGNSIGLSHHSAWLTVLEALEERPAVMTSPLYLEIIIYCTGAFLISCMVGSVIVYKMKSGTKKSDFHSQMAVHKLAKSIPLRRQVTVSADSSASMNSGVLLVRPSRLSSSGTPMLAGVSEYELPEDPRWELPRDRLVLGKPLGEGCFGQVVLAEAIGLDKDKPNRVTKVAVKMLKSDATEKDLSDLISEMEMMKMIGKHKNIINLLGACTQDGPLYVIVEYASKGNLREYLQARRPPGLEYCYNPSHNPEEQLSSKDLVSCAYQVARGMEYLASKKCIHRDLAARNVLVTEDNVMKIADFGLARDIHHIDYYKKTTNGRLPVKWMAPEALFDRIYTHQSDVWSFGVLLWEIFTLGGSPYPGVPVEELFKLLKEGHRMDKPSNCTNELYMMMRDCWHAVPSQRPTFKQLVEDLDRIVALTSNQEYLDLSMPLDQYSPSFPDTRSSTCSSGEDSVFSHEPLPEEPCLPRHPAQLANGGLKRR
Assay [3] is described as follows: Inhibition of SLC34A2/ROS (unknown origin). Details: species or system Homo sapiens.
The target of assay [4] is Serine/threonine-protein kinase PLK1 (Homo sapiens, UniProt P53350). The assay is described as follows: Inhibition of PLK-1 (unknown origin).
Sequence of Serine/threonine-protein kinase PLK1 (P53350 whole entry): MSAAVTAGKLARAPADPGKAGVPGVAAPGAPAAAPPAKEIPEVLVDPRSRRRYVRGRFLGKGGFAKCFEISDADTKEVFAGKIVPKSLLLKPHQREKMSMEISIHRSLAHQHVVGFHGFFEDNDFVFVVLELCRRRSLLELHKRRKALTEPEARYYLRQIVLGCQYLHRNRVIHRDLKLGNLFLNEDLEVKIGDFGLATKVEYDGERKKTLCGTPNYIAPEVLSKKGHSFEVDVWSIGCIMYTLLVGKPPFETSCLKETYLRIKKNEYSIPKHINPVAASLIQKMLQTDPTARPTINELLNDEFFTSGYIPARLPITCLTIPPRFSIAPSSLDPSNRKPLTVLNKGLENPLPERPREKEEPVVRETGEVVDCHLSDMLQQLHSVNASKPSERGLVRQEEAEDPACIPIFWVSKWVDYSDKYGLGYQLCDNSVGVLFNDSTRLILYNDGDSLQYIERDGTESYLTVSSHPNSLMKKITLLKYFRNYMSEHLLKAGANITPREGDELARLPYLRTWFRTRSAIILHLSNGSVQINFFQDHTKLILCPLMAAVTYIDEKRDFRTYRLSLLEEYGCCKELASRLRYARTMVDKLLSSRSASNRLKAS
Assay [5] deals with Serine/threonine-protein kinase PLK3 (Homo sapiens, UniProt Q9H4B4). The assay is described as follows: Inhibition of PLK-3 (unknown origin).
Sequence of Serine/threonine-protein kinase PLK3 (Q9H4B4 whole entry): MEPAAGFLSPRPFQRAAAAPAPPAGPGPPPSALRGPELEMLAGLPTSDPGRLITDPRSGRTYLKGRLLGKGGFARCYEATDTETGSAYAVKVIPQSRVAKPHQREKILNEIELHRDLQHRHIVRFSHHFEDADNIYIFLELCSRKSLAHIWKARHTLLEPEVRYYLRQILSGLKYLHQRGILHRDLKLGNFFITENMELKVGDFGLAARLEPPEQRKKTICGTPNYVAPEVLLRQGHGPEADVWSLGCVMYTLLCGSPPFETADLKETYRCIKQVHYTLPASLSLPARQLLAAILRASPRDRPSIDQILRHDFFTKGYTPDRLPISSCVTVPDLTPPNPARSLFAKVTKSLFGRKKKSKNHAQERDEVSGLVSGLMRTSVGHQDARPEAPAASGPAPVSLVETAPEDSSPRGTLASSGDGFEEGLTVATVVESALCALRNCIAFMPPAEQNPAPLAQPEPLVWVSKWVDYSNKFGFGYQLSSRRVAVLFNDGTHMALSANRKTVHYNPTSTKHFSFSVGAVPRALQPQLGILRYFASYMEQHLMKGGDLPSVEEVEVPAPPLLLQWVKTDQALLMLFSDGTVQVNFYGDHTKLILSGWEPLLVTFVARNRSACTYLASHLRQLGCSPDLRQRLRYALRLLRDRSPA

Sequence of Serine/threonine-protein kinase PLK2 (Q9NYY3 whole entry): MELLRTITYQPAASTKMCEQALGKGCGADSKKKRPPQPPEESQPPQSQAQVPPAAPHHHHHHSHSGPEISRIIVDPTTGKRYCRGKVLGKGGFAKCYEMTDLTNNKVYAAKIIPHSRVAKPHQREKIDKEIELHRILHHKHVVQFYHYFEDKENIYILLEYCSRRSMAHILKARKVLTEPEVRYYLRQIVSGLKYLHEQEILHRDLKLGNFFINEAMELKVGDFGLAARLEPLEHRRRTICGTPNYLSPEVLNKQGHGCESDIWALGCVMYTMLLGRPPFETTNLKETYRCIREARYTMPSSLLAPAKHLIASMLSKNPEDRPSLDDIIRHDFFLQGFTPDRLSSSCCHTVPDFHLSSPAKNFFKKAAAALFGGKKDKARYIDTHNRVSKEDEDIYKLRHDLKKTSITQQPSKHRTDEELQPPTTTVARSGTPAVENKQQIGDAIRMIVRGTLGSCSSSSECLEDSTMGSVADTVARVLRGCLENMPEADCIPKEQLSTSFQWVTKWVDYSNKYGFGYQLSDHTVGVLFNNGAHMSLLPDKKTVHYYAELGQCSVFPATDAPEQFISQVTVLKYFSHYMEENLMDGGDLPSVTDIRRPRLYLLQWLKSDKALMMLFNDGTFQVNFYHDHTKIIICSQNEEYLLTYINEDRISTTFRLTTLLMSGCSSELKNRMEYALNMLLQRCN

The term IC50 denotes the point on the concentration scale where inhibition reaches its midpoint. The low end stands for higher potency, the high end for lower potency. In general, EC50 refers to the concentration at which the effect is half-maximal. In the case of `COc1ccc2c(c1)[C@]1(C[C@H]1c1ccc3c(/C=C/c4ccc(CN5C[C@@H](C)O[C@@H](C)C5)cc4)n[nH]c3c1)C(=O)N2` [OCIFISERTIB], the half-inhibitory concentration (IC50) in assay [1], in assay [4] and in assay [5] was > 50 µM throughout. The values for the concentration for a half-maximal effect (EC50) in assay [2] and in assay [3] were 1100 nM and 466 nM, respectively.
